Results: ChEMBL document CHEMBL4725224, “A novel Golgi mannosidase inhibitor: Molecular design, synthesis, enzyme inhibition, and inhibition of spheroid formation” (Bioorg Med Chem, 2020)
The source made the active and inactive calls. No cut-off for these calls is given here.

What was measured:
Type in all cases: cell-based
HeLa [1] = test: Inhibition of Golgi mannosidase in human HeLa cells assessed as high mannose type N-glycans accumulation by measuring reduction in cell length using ConA-AF488 at 10 uM by fluorescence microscopy analysis (reference value: 100%); details: time day <=7
HeLa [2] = test: Inhibition of Golgi mannosidase in human HeLa cells assessed as high mannose type N-glycans accumulation by measuring increase in fluorescence intensity using ConA-AF488 at 10 uM by fluorescence microscopy analysis (reference value: 100%); details: values are per cent of control
HeLa [3] = test: Inhibition of Golgi mannosidase in human HeLa cells assessed as high mannose type N-glycans accumulation by measuring increase in fluorescence area using ConA-AF488 at 10 uM by fluorescence microscopy analysis (reference value: 100%); details: values are per cent of control
OVCAR-3 = test: Inhibition of Golgi mannosidase in human OVCAR-3 cells assessed as inhibition of spheroid formation by measuring size at 10 uM upto 7 days by light microscopy analysis relative to control; details: time day <=7
HeLa [4] = test: Inhibition of Golgi mannosidase in human HeLa cells assessed as intracellular high mannose type N-glycans accumulation by measuring increase in fluorescence intensity using ConA-AF488 at 10 uM by confocal laser scanning microscopy analysis

## CN(C)c1ccc(CNCCC(c2ccccc2)c2ccccc2)cc1
HeLa [1]
  inhibition: 32%

## CN(C)c1ccc(CNCCC(c2ccccc2)c2ccc3c(c2)OCO3)cc1 (centres undefined)
HeLa [1]
  inhibition: 23%
HeLa [2]
  response, % of control: 114%
HeLa [3]
  response, % of control: 114%

## COc1ccc(C(CCNCc2ccc(N(C)C)cc2)c2ccc3c(c2)OCO3)cc1 (centres undefined)
OVCAR-3
  inhibition: Active
HeLa [1]
  inhibition: 28%
HeLa [4]
  inhibition: Active
HeLa [3]
  response, % of control: 148%

## c1ccc(C(CCNCc2ccc3c(c2)OCO3)c2ccc3c(c2)OCO3)cc1 (centres undefined)
HeLa [1]
  inhibition: 31%
HeLa [2]
  response, % of control: 104%
HeLa [3]
  response, % of control: 113%

## COc1ccc(C(CCNCc2ccc(Cl)cc2)c2ccc3c(c2)OCO3)cc1 (centres undefined)
HeLa [1]
  inhibition: 27%
HeLa [3]
  response, % of control: 150%

## O=C1N[C@@H]2[C@@H](O)[C@@H](O)[C@H](O)[C@@H](CO)N2C1=O
OVCAR-3
  inhibition: inactive
HeLa [1]
  inhibition: 13%
HeLa [4]
  inhibition: Active

## c1ccc(CNCCC(c2ccccc2)c2ccc3c(c2)OCO3)cc1 (centres undefined)
HeLa [1]
  inhibition: 21%

## c1ccc(C(CCNCc2ccc3c(c2)OCO3)c2ccccc2)cc1
HeLa [1]
  inhibition: 28%
HeLa [2]
  response, % of control: 114%
HeLa [3]
  response, % of control: 113%

## Clc1ccc(CNCCC(c2ccccc2)c2ccccc2)cc1
HeLa [1]
  inhibition: 29%
HeLa [2]
  response, % of control: 134%
HeLa [3]
  response, % of control: 127%

## Clc1ccc(CNCCC(c2ccccc2)c2ccc3c(c2)OCO3)cc1 (centres undefined)
HeLa [1]
  inhibition: 18%
HeLa [2]
  response, % of control: 111%
HeLa [3]
  response, % of control: 115%

## COc1ccc(C(CCNCc2ccc3c(c2)OCO3)c2ccc3c(c2)OCO3)cc1 (centres undefined)
HeLa [1]
  inhibition: 26%
HeLa [2]
  response, % of control: 110%
HeLa [3]
  response, % of control: 108%
